Results reported in patent publication US6339081B1, “Composition and use” (priority 1996, dated 2002).

How the values were obtained:
Format in all cases: cell-based
mixed bacterial culture = experiment: Preservation of unpreserved latex, repeated challenge with mixed bacterial culture; design: key to Viable bacteria, Third inoculum (days) 5 / Viable bacteria, Third inoculum (days) 7 / Viable bacteria, First inoculum (days) 3 / Viable bacteria, First inoculum (days) 5 / Viable bacteria, First inoculum (days) 7 / Viable bacteria, Second inoculum (days) 3 / Viable bacteria, Second inoculum (days) 5 / Viable bacteria, Second inoculum (days) 7 / Viable bacteria, Third inoculum (days) 3: C is confluent growth over the surface; − is no visible colonies; + is few visible colonies; ++ is clusters of discreet colonies
Description: Aliquots (25 parts) of unpreserved latex containing 50% by weight solids of a copolymer of 2-ethylhexylacrylate/acrylic acid at pH 8.5 were formulated with zinc acetate and the 2:1 zinc complex of 3-hydroxy4-methyl thiazol-2(3H)-thione in the amounts shown in Table 1 below. After formulation, each aliquot was stored at 20° C. for 1 week prior to inoculation with a mixed bacterial culture.
The bacterial culture was prepared by culturing the following seven bacteria in nutrient agar for 24 hours at 30° C.
Each of the individual bacterium was prepared at a concentration of 10^8 cells/ml in quarter strength Ringers solution by means of a Thoma counting chamber. The mixed inoculum was prepared by mixing equal volumes of the cultures containing the individual bacterium.
The latex aliquots were repeatedly inoculated at 0, 7 and 14 day intervals with 0.5 ml mixed inoculum (2×10^6 cells/ml) and incubated at 30° C. The number of viable bacteria was determined by streaking a small portion of each aliquot of latex onto nutrient agar after 3, 5 and 7 days followed by visible assessment after incubation for 2 days at 30° C.

mixed inoculum = experiment: Preservation of styrene-acrylic emulsion paint, challenge with mixed inoculum; design: key to Bacterial growth, First Inoculum Days 4 / Bacterial growth, First Inoculum Days 7 / Bacterial growth, Second Inoculum Days 4 / Bacterial growth, Second Inoculum Days 7 / Bacterial growth, Second Inoculum Days 14 / Bacterial growth, Third Inoculum Days 4 / Bacterial growth, Third Inoculum Days 7 / Bacterial growth, Third Inoculum Days 21: − = no growth (no visible colonies); + = light growth (a few visible colonies); ++ = moderate growth (discrete colonies visible, some coalescence); +++ = dense, confluent growth (coalescing colonies visible throughout streak); settings: for Bacterial growth, First Inoculum Days 4 / Bacterial growth, First Inoculum Days 7 / Bacterial growth, Second Inoculum Days 4 / Bacterial growth, Second Inoculum Days 7 / Bacterial growth, Second Inoculum Days 14 / Bacterial growth, Third Inoculum Days 4 / Bacterial growth, Third Inoculum Days 7 / Bacterial growth, Third Inoculum Days 21: emulsion paint
Description: An inoculum was prepared containing the following micro-organisms:
Each of the individual bacterium was cultured in nutrient agar and incubated at 30° C. for 24 hours followed by suspension in quarter strength Ringers solution by means of a Thoma countering chamber to give 10^8 cells/ml. A mixed inoculum was prepared by combining equal volumes.
An aliquot of the starch containing the ZHMT, and optionally zinc acetate, was inoculated weekly with 0.5 ml of the mixed inoculum on three occasions to give 2×10^6 cells/ml. The aliquots were then incubated at 30° C. and examined for bacterial growth by streaking a small sample onto nutrient agar and incubating at 30° C. for 2 days prior to visual examination.
Aliquots of a styrene-acrylic emulsion paint were treated with the 2:1 zinc complex of 3-hydroxy-4-methylthiazol-2(3H)-thione (ZHMT) optionally containing zinc acetate (ZnAc) or zinc oxide (ZnO). These aliquots were challenged with the mixed inoculum described in Example 5 and examined for bacterial growth as described in this previous example.

[1] = tested on: Pseudomonas aeruginosa NCIB 10421; experiment: MIC and Fractional Inhibitory Concentration (FIC) in microtitre array; settings: single component
Description: The gram negative bacterium, Pseudomonas aeruginosa NCIB 10421 was grown in nutrient broth to stationary phase during 18 hours and contained approximately 10^9 organisms/ml. A 0.1% (v/v) inoculum was used to seed fresh nutrient broth and 100 μl was then added to each well of a microtitre plate, except for the first well which contained 200 μl.
Solutions of zinc acetate (ZnAc) and the 2:1 zinc complex of 3-hydroxy-4-methylthiazol-2(3H)-thione (ZHMT), respectively, were prepared in nutrient broth at twice the final concentration to be used in the microtitre array. A microtitre array was prepared with concentration of zinc acetate and ZHMT from twice the MIC down to zero concentration in a 10×10 array. Since the array contains only 96 wells, the highest and lowest concentration of the zinc acetate and ZHMT were omitted. The dilution of the ZHMT was doubled across the ordinate axis of the array by transferring 100 μl aliquots so that the final volume in each well was 200 μl. The microtitre plate was then incubated for 16 to 24 hours at 37° C. and the presence of bacterial growth assessed visually.
The FIC is defined as the sum of the fractional inhibitory concentration of each component. The FIC of the individual component is the ratio of the concentration of the component in the binary mixture divided by its MIC.

[2] = tested on: contaminated matt paint millbase; experiment: Viable cells in contaminated matt paint millbase; design: key to Viable cells after (days) 5 / Viable cells after (days) 7 / Viable cells after (days) 14: C is confluent growth over the surface; − is no visible colonies; + is few visible colonies; ++ is clusters of discreet colonies
Description: 25 ml Aliquots of a contaminated matt paint millbase were formulated with the 2:1 zinc complex of 3-hydroxy-4-methylthiazol-2(3H)-thione and zinc acetate as shown in Table 2 below. The number of variable cells was determined by streaking a small portion of each aliquot of millbase onto nutrient agar after 5, 7 and 14 days. The number of cells was determined by visible assessment following incubation for 2 days at 30° C.

[3] = latex, Amount 200 ppm of each component present
[4] = latex, Amount 25 ppm of each component present
[5] = latex, Amount 50 ppm of each component present
[6] = latex, Amount 100 ppm of each component present
[7] = Amount 25 ppm of each component present
[8] = Amount 50 ppm of each component present

Structure (SMILES): [Cl-].[Cl-].[Zn+2] [ZC, zinc chloride]
- Viable bacteria, First inoculum (days) 3 (mixed bacterial culture; [3]): +
- Viable bacteria, First inoculum (days) 5 (mixed bacterial culture; [3]): −
- Viable bacteria, First inoculum (days) 7 (mixed bacterial culture; [3]): −
- Viable bacteria, Second inoculum (days) 3 (mixed bacterial culture; [3]): ++
- Viable bacteria, Second inoculum (days) 5 (mixed bacterial culture; [3]): ++
- Viable bacteria, Second inoculum (days) 7 (mixed bacterial culture; [3]): ++
- Viable bacteria, Third inoculum (days) 3 (mixed bacterial culture; [3]): C
- Viable bacteria, Third inoculum (days) 5 (mixed bacterial culture; [3]): C
- Viable bacteria, Third inoculum (days) 7 (mixed bacterial culture; [3]): C
- antimicrobial activity in latex (mixed bacterial culture; zinc salt alone, 200 ppm (Table 1)): no antimicrobial activity

Structure (SMILES): Cc1csc(=S)n1[O-].Cc1csc(=S)n1[O-].[Zn+2] [ZHMT, 2:1 zinc complex of 3-hydroxy-4-methylthiazol-2(3H)-thione]
- Bacterial growth, First Inoculum Days 4 (mixed inoculum; Conc. 10 (ppm ZHMT)): −
- Bacterial growth, First Inoculum Days 7 (mixed inoculum; Conc. 10 (ppm ZHMT)): −
- Bacterial growth, Second Inoculum Days 4 (mixed inoculum; Conc. 10 (ppm ZHMT)): +++
- Bacterial growth, Second Inoculum Days 7 (mixed inoculum; Conc. 10 (ppm ZHMT)): +++
- Bacterial growth, Second Inoculum Days 14 (mixed inoculum; Conc. 10 (ppm ZHMT)): +++
- Bacterial growth, Third Inoculum Days 4 (mixed inoculum; Conc. 10 (ppm ZHMT)): +++
- Bacterial growth, Third Inoculum Days 7 (mixed inoculum; Conc. 10 (ppm ZHMT)): +++
- Bacterial growth, Third Inoculum Days 21 (mixed inoculum; Conc. 10 (ppm ZHMT)): +++
- Bacterial growth, First Inoculum Days 4 (mixed inoculum; Conc. 25 (ppm ZHMT)): −
- Bacterial growth, First Inoculum Days 7 (mixed inoculum; Conc. 25 (ppm ZHMT)): −
- Bacterial growth, Second Inoculum Days 4 (mixed inoculum; Conc. 25 (ppm ZHMT)): +++
- Bacterial growth, Second Inoculum Days 7 (mixed inoculum; Conc. 25 (ppm ZHMT)): +++
- Bacterial growth, Second Inoculum Days 14 (mixed inoculum; Conc. 25 (ppm ZHMT)): +++
- Bacterial growth, Third Inoculum Days 4 (mixed inoculum; Conc. 25 (ppm ZHMT)): +++
- Bacterial growth, Third Inoculum Days 7 (mixed inoculum; Conc. 25 (ppm ZHMT)): +++
- Bacterial growth, Third Inoculum Days 21 (mixed inoculum; Conc. 25 (ppm ZHMT)): +++
- Bacterial growth, First Inoculum Days 4 (mixed inoculum; Conc. 50 (ppm ZHMT)): −
- Bacterial growth, First Inoculum Days 7 (mixed inoculum; Conc. 50 (ppm ZHMT)): −
- Bacterial growth, Second Inoculum Days 4 (mixed inoculum; Conc. 50 (ppm ZHMT)): +++
- Bacterial growth, Second Inoculum Days 7 (mixed inoculum; Conc. 50 (ppm ZHMT)): +++
- Bacterial growth, Second Inoculum Days 14 (mixed inoculum; Conc. 50 (ppm ZHMT)): +++
- Bacterial growth, Third Inoculum Days 4 (mixed inoculum; Conc. 50 (ppm ZHMT)): +++
- Bacterial growth, Third Inoculum Days 7 (mixed inoculum; Conc. 50 (ppm ZHMT)): +++
- Bacterial growth, Third Inoculum Days 21 (mixed inoculum; Conc. 50 (ppm ZHMT)): +++
- Bacterial growth, First Inoculum Days 4 (mixed inoculum; Conc. 100 (ppm ZHMT)): −
- Bacterial growth, First Inoculum Days 7 (mixed inoculum; Conc. 100 (ppm ZHMT)): −
- Bacterial growth, Second Inoculum Days 4 (mixed inoculum; Conc. 100 (ppm ZHMT)): +++
- Bacterial growth, Second Inoculum Days 7 (mixed inoculum; Conc. 100 (ppm ZHMT)): +++
- Bacterial growth, Second Inoculum Days 14 (mixed inoculum; Conc. 100 (ppm ZHMT)): +++
- Bacterial growth, Third Inoculum Days 4 (mixed inoculum; Conc. 100 (ppm ZHMT)): +++
- Bacterial growth, Third Inoculum Days 7 (mixed inoculum; Conc. 100 (ppm ZHMT)): +++
- Bacterial growth, Third Inoculum Days 21 (mixed inoculum; Conc. 100 (ppm ZHMT)): +++
- Bacterial growth, First Inoculum Days 4 (mixed inoculum; Conc. 200 (ppm ZHMT)): −
- Bacterial growth, First Inoculum Days 7 (mixed inoculum; Conc. 200 (ppm ZHMT)): −
- Bacterial growth, Second Inoculum Days 4 (mixed inoculum; Conc. 200 (ppm ZHMT)): ++
- Bacterial growth, Second Inoculum Days 7 (mixed inoculum; Conc. 200 (ppm ZHMT)): ++
- Bacterial growth, Second Inoculum Days 14 (mixed inoculum; Conc. 200 (ppm ZHMT)): ++
- Bacterial growth, Third Inoculum Days 4 (mixed inoculum; Conc. 200 (ppm ZHMT)): +++
- Bacterial growth, Third Inoculum Days 7 (mixed inoculum; Conc. 200 (ppm ZHMT)): +++
- Bacterial growth, Third Inoculum Days 21 (mixed inoculum; Conc. 200 (ppm ZHMT)): +++
- ZHMT level at which the paint is preserved (mixed inoculum; styrene-acrylic emulsion paint): > 200 ppm
- Minimum Inhibitory Concentrations (MIC) ([1]; nutrient broth, 16 to 24 hours at 37° C.): 32 ppm
- FIC ([1]; relative conc. 1): 1
- activity in the presence of both zinc salts (mixed bacterial culture; latex, especially after repeated challenge): significantly enhanced
- Viable bacteria, First inoculum (days) 3 (mixed bacterial culture; [4]): −
- Viable bacteria, First inoculum (days) 5 (mixed bacterial culture; [4]): −
- Viable bacteria, First inoculum (days) 7 (mixed bacterial culture; [4]): −
- Viable bacteria, Second inoculum (days) 3 (mixed bacterial culture; [4]): C
- Viable bacteria, Second inoculum (days) 5 (mixed bacterial culture; [4]): C
- Viable bacteria, Second inoculum (days) 7 (mixed bacterial culture; [4]): C
- Viable bacteria, Third inoculum (days) 3 (mixed bacterial culture; [4]): C
- Viable bacteria, Third inoculum (days) 5 (mixed bacterial culture; [4]): C
- Viable bacteria, Third inoculum (days) 7 (mixed bacterial culture; [4]): C
- Viable bacteria, First inoculum (days) 3 (mixed bacterial culture; [5]): ++
- Viable bacteria, First inoculum (days) 5 (mixed bacterial culture; [5]): −
- Viable bacteria, First inoculum (days) 7 (mixed bacterial culture; [5]): −
- Viable bacteria, Second inoculum (days) 3 (mixed bacterial culture; [5]): ++
- Viable bacteria, Second inoculum (days) 5 (mixed bacterial culture; [5]): +
- Viable bacteria, Second inoculum (days) 7 (mixed bacterial culture; [5]): +
- Viable bacteria, Third inoculum (days) 3 (mixed bacterial culture; [5]): C
- Viable bacteria, Third inoculum (days) 5 (mixed bacterial culture; [5]): C
- Viable bacteria, Third inoculum (days) 7 (mixed bacterial culture; [5]): C
- Viable bacteria, First inoculum (days) 3 (mixed bacterial culture; [6]): ++
- Viable bacteria, First inoculum (days) 5 (mixed bacterial culture; [6]): −
- Viable bacteria, First inoculum (days) 7 (mixed bacterial culture; [6]): −
- Viable bacteria, Second inoculum (days) 3 (mixed bacterial culture; [6]): ++
- Viable bacteria, Second inoculum (days) 5 (mixed bacterial culture; [6]): +
- Viable bacteria, Second inoculum (days) 7 (mixed bacterial culture; [6]): −
- Viable bacteria, Third inoculum (days) 3 (mixed bacterial culture; [6]): ++
- Viable bacteria, Third inoculum (days) 5 (mixed bacterial culture; [6]): ++
- Viable bacteria, Third inoculum (days) 7 (mixed bacterial culture; [6]): ++
- Viable bacteria, First inoculum (days) 3 (mixed bacterial culture; [3]): +
- Viable bacteria, First inoculum (days) 5 (mixed bacterial culture; [3]): −
- Viable bacteria, First inoculum (days) 7 (mixed bacterial culture; [3]): −
- Viable bacteria, Second inoculum (days) 3 (mixed bacterial culture; [3]): ++
- Viable bacteria, Second inoculum (days) 5 (mixed bacterial culture; [3]): +
- Viable bacteria, Second inoculum (days) 7 (mixed bacterial culture; [3]): −
- Viable bacteria, Third inoculum (days) 3 (mixed bacterial culture; [3]): ++
- Viable bacteria, Third inoculum (days) 5 (mixed bacterial culture; [3]): ++
- Viable bacteria, Third inoculum (days) 7 (mixed bacterial culture; [3]): ++
- Viable cells after (days) 5 [2, 7]: C
- Viable cells after (days) 7 [2, 7]: C
- Viable cells after (days) 14 [2, 7]: C
- Viable cells after (days) 5 [2, 8]: C
- Viable cells after (days) 7 [2, 8]: C
